The values below come from patent US11304897B2, “Pharmaceutical formulation containing umeclidinium bromide and vilanterol trifenatate” (ANOVENT PHARMACEUTICAL (U.S.), LLC, priority 2020, dated 2022).

Broadly, the solubility is the concentration that dissolves in the medium under given conditions. High values mean much dissolved substance, low ones little dissolved substance.

The data set is described as follows: Solubility in different cosolvents. The class given is physicochemical. From the text:
Solubility in Different Cosolvents: 5% tween-80: Dissolve 5 g tween-80 in 100 g purified water. 5% Sulfobutylether β-cyclodextrin: Dissolve 5 g Sulfobutylether β-cyclodextrin in 100 g purified water. 20% Sulfobutylether β-cyclodextrin: Dissolve 20 g Sulfobutylether β-cyclodextrin in 100 g purified water.

[1] abbreviates: 0.2 mg/ml tween-80, aqueous with cosolvent or surfactant or cyclodextrin.
[2] abbreviates: 5% sulfobutylether β-cyclodextrin in purified water, aqueous with cosolvent or surfactant or cyclodextrin.
Setting [3] is: 5% tween-80 in purified water, aqueous with cosolvent or surfactant or cyclodextrin, 5% tween -80.
The mark [4] stands for this setting: 20% sulfobutylether β-cyclodextrin in purified water, aqueous with cosolvent or surfactant or cyclodextrin.

Each structure is given as a SMILES string. ≈ marks a conversion by molar mass, not a printed value.

In the case of `OC(c1ccccc1)(c1ccccc1)C12CC[N+](CCOCc3ccccc3)(CC1)CC2.[Br-]` [UB, 1-[2-(benzyloxy)ethyl]-4-(hydroxydiphenylmethyl)-1-azoniabicyclo[2.2.2]octane bromide], the solubility by setting is: under setting [1], 582 µg/mL; under setting [2], 3560 µg/mL; under setting [3], 3540 µg/mL; under setting [4], 3450 µg/mL; (purified water, water) 618 µg/mL. Moreover, the “solubility (in words)” value (purified water) was “almost insoluble”.

As to `OCc1cc([C@@H](O)CNCCCCCCOCCOCc2c(Cl)cccc2Cl)ccc1O` [VT, triphenylacetic acid-4-{(1R)-2-[(6-{2-[(2,6-dicholorobenzyl)oxy]ethoxy}hexyl)amino]-1-hydroxyethyl}-2-(hydroxymethyl)phenol (1:1)], the solubility by setting is: under setting [1], 62.6 µg/mL (≈ 129 µM); under setting [2], 370 µg/mL (≈ 760 µM); under setting [3], 1370 µg/mL (≈ 2820 µM); under setting [4], 1400 µg/mL (≈ 2880 µM); (purified water, water) 53.7 µg/mL (≈ 110 µM). In addition, the “solubility (in words)” value (purified water) was “almost insoluble”.
